# Laboratory results from patent US7572436B1, “Thionin as an antineoplastic and immunostimulant” (priority 2000, dated 2009).
# Where no end group is shown, it is not given here.
# Key:
# [1] = Stability of PT (temperature, proteases); format: physicochemical
# [2] = test system: K562 Target Cells; experiment: Natural killer assay (^51Cr release), human PBLs against K562; format: cell-based; details: PT 0.01 μg/ml
# Protocol: Murine spleen cell and human peripheral blood lymphocytes (PBLs) were obtained as described in the procedure for the Mitogen Assay.
# Drugs and control substances were added, using sterile techniques, to the wells of a 24-well plate, using RPMI-10 as the culture medium. Spleen cells or human lymphocytes were added last to the wells at a concentration of 4×10^6 cells per 2 ml total volume in the well. Splenocyte incubation was usually three days (65-70 hours) while human lymphocyte stimulation may be extended to four to five days. The cells were incubated at 37° C. in a humidified 5% CO2 incubator.
# On the day of harvest, 10^7 target cells were labeled with 150 μCi of ^51Cr (sodium chromate). Target cells used were YAC-I (murine Lymphoma) or K562 (human chronic myelogenous leukemia). […]
# The 96-well plate was centrifuged at 150×g for four minutes to gently bring the effector and target cells in contact. […] The percent release was calculated using the following formula: […]
# Addition of PT stimulates both murine splenocytes and human PBLs to kill tumor cells through lysis. […] After a 30-minute incubation, the radioactivity in the supernatant fluid was counted as a measure of lysis of the target cells, which reflects NK activity. […]
# [3] = test system: non-adherent human PBLs; experiment: Mitogen assay (^3H-thymidine uptake), human PBLs; format: cell-based; details: PT 0.01 μg/ml
# Description: Murine spleen cells or human peripheral blood lymphocytes (PBLS) were obtained aseptically as described herein for use in the mitogen assay. When murine splenocytes were used, they were first treated with red cell lysing buffer (0.17 M Tris, 0.144 NH4C1, pH 7.2), washed in RPMI-10 (standard RPMI growth medium, Sigma Chemical Co., St. Louis, Mo., supplemented with 10% fetal bovine serum) and viable cells counted using Trypan Blue exclusion. Human PBLs were isolated from blood using HISTOPAQUE™-1077, a solution of FICOLL™ and sodium diatrizoate (Sigma Chemical Co., St. Louis, Mo.), and subsequent washings with RPMI-5 (RPMI supplemented with 5% fetal bovine serum) to remove platelets. Isolated lymphocytes were resuspended in RPMI-10 and a viable cell yield determined by Trypan Blue exclusion.
# Drugs and known mitogenic controls were added in triplicate to a 96-well flat bottom microplate aseptically. The culture medium was RPMI-10. Splenocytes or human-lymphocytes were added at a concentration of 3-4×10^5 cells/well, to a final volume of 200 μl/well. The assay plate was incubated at 37° C. in a 5% CO2 humidified incubator. At 48-50 hours, ^3H-thymidine was added (1 μCi/well), and the plate was harvested approximately 16-18 hours later.
# Mitogen assay microplates were harvested using an Inotech plate harvester (Inotech Biosystems International, Inc., Rockville, Md.). Counts per minute (cpm) per well were measured using the Berthold-Inotech Trace 96-plate reader (Inotech AT, Wohlen, Switzerland) and/or a scintillation counter (Packard Tri-carb 2100TR, Packard Instrument Co., Meriden, Conn.). Mitogenic activity was directly determined by comparing cpm levels to controls.
# To test whether PT stimulates mitogen activity, splenocytes were incubated for two days with IL-2 (50 units/ml) or KLH (20 μg/ml) in conjunction with PT in the concentrations shown. Figures represent the radioactivity counts of tritiated thymidine taken up during a subsequent 20-hour incubation period of cells incubated with tritiated thymidine in RPMI.
# [4] = test system: membrane structure of cells or phospholipid vesicles; details: reported in the literature; begin around this value and continue up to and above 20 μg/ml; cited from earlier work
# [5] = test system: Balb C splenocytes; experiment: Mitogen assay (^3H-thymidine uptake), murine splenocytes; format: cell-based; details: for Cpm, standard mitogen assay: 0.1 μg/ml PT
substance,measurement,setting,value
Pyrularia thionin (KSCCRNTWARNCYNVCRLPGTISREICAKKCDCKIISGTTCPSDYPK; ends and bridges not checked; also: labeled with 125I) [PT],interaction with cell membranes after exposure to temperature,[1]; 70° C.,not influenced
same,resistance to proteases,[1]; common proteases found in blood,resistant to the common proteases found in blood
same,% Cytotoxicity,[2],8.4 ± 0.1%
same,CPM of tritiated thymidine incorporated,[3]; RPMI,724 ± 212 CPM
same,CPM of tritiated thymidine incorporated,[3]; RPMI + IL-2 50 units/ml,"2,584 ± 527 CPM"
same,concentrations required to induce changes in the membrane structure of cells or phospholipid vesicles,[4],≥ 1000 ng/mL
same,stimulation of the mitogen reaction,[5]; 0.1 μg/ml (PT 20 nM; βME 40 nM),modest
same,"Cpm, standard mitogen assay",[5]; GM-CSF (5 ng/ml),822 Cpm
same,"Cpm, standard mitogen assay",[5]; no GM-CSF,243 Cpm
